These results are taken from patent publication US20120214193A1, “METHOD FOR MEASUREMENT OF FLUORESCENCE INTENSITY OF VOLTAGE-SENSITIVE FLUORESCENT DYE” (Keio University, priority 2009, published 2012).

This assay concerns human ES cell derived cardiomyocytes. Nature of the assay: Activity potential measurement of cardiomyocytes treated with a potential-sensitive fluorochrome. Type of assay: cell-based. The settings on record: 18.75 μM vitamin E and/or 18.75 μM cholesterol. From the text:
Human embryonic stem cells (ES cells) were obtained from Stem Cell Research Center, the Institute for Frontier Medical Sciences, Kyoto University (Embryonic Stem Cell Center sponsored by the National Bioresource Project). Human induced pluripotent stem cells (iPS cells) were obtained from the Center for iPS Cell Research and Application, Institute for Integrated Cell-Material Sciences, Kyoto University. […] To prepare the MEF cells, the fetus of an ICR mouse at day 14 of gestation (CLEA Japan, Inc.) was beheaded and disemboweled and thereafter disintegrated into discrete cells by the method described in WO 2006/022377. […] In other experiments, the cultured cells were treated with a potential-sensitive fluorochrome and 18.75 μM of vitamin E and/or 18.75 μM of cholesterol and then the temporal change in fluorescent intensity was measured. […]

Regarding `CC(C)CCC[C@@H](C)[C@H]1CC[C@H]2[C@@H]3CC=C4C[C@@H](O)CC[C@]4(C)[C@H]3CC[C@]12C` [cholesterol], the “detection of activity potential waveforms from single cardiomyocytes (FIG. 5)” value is on record as “became observable”.

In the case of vitamin E, the “detection of activity potential waveforms from single cardiomyocytes (FIG. 5)” value was “became observable”.
